Assay results taken from ChEMBL document CHEMBL1201861, “Genomics of Drug Sensitity in Cancer screening data, Wellcome Trust Sanger Institute”.

Experiments:
TUR = assay: cells; assay type: functional, cell-based, Homo sapiens; conditions: Homo sapiens, TUR;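 note: growth inhibition of human TUR cells, read out with a cell viability assay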
Description: SANGER: Inhibition of human TUR cell growth in a cell viability assay.

A 172 = assay: cells; assay type: functional, cell-based, Homo sapiens; conditions: Homo sapiens, A 172;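 note: growth inhibition of A172 cells, measured with a cell viability readout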
Description: SANGER: Inhibition of human A172 cell growth in a cell viability assay.

D-542MG = assay: cells; assay type: functional, cell-based, Homo sapiens; conditions: Homo sapiens, D-542MG
Description: SANGER: Inhibition of human D-542MG cell growth in a cell viability assay.

MC-CAR = assay: cells; assay type: functional, cell-based, Homo sapiens; conditions: Homo sapiens, MC-CAR;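 note: growth inhibition of the human MC-CAR cell line, read out by a cell viability assay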
Description: SANGER: Inhibition of human MC-CAR cell growth in a cell viability assay.

KYSE-270 = assay: cells; assay type: functional, cell-based, Homo sapiens; conditions: Homo sapiens, KYSE-270;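 note: cell growth inhibition measured with a viability assay in the human KYSE-270 line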
Description: SANGER: Inhibition of human KYSE-270 cell growth in a cell viability assay.

VM-CUB-1 = assay: cells; assay type: functional, cell-based, Homo sapiens; conditions: Homo sapiens, VM-CUB-1;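 note: cell viability assay measuring growth inhibition of the human VM-CUB-1 cell line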
Description: SANGER: Inhibition of human VM-CUB-1 cell growth in a cell viability assay.

A673 = assay: cells; assay type: functional, cell-based, Homo sapiens; conditions: Homo sapiens, A673;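 note: growth inhibition of human A673 cells, read out through a cell viability assay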
Description: SANGER: Inhibition of human A673 cell growth in a cell viability assay.

YKG-1 = assay: cells; assay type: functional, cell-based, Homo sapiens; conditions: Homo sapiens, YKG-1;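 note: cell growth inhibition, read out with a viability assay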
Description: SANGER: Inhibition of human YKG-1 cell growth in a cell viability assay.

H4 = assay: cells; assay type: functional, cell-based, Homo sapiens; conditions: Homo sapiens, H4
Description: SANGER: Inhibition of human H4 cell growth in a cell viability assay.

HuO-3N1 = assay: cells; assay type: functional, cell-based, Homo sapiens; conditions: Homo sapiens, HuO-3N1;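 note: cell viability readout used to measure how strongly compounds suppress proliferation of human HuO-3N1 cells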
Description: SANGER: Inhibition of human HuO-3N1 cell growth in a cell viability assay.

MG-63 = assay: cells; assay type: functional, cell-based, Homo sapiens; conditions: Homo sapiens, MG-63;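 note: growth inhibition of human MG-63 cells, read out with a cell viability assay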
Description: SANGER: Inhibition of human MG-63 cell growth in a cell viability assay.

DG-75 = assay: cells; assay type: functional, cell-based, Homo sapiens; conditions: Homo sapiens, DG-75;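 note: growth inhibition of DG-75 cells, read out with a cell viability assay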
Description: SANGER: Inhibition of human DG-75 cell growth in a cell viability assay.

RO82-W-1 = assay: cells; assay type: functional, cell-based, Homo sapiens; conditions: Homo sapiens, RO82-W-1;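 note: growth inhibition of human RO82-W-1 cells, measured with a cell viability assay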
Description: SANGER: Inhibition of human RO82-W-1 cell growth in a cell viability assay.

HCC1937 = assay: cells; assay type: functional, cell-based, Homo sapiens; conditions: Homo sapiens, HCC1937;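 note: growth inhibition measured with a cell viability read-out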
Description: SANGER: Inhibition of human HCC1937 cell growth in a cell viability assay.

NY = assay: cells; assay type: functional, cell-based, Homo sapiens; conditions: Homo sapiens, NY
Description: SANGER: Inhibition of human NY cell growth in a cell viability assay.

RT-112 = assay: cells; assay type: functional, cell-based, Homo sapiens; conditions: Homo sapiens, RT-112
Description: SANGER: Inhibition of human RT-112 cell growth in a cell viability assay.

UACC-812 = assay: cells; assay type: functional, cell-based, Homo sapiens; conditions: Homo sapiens, UACC-812
Description: SANGER: Inhibition of human UACC-812 cell growth in a cell viability assay.

OE33 = assay: cells; assay type: functional, cell-based, Homo sapiens; conditions: Homo sapiens, OE33;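 note: growth inhibition of human OE33 cells, measured by a cell viability assay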
Description: SANGER: Inhibition of human OE33 cell growth in a cell viability assay.

KP-4 = assay: cells; assay type: functional, cell-based, Homo sapiens; conditions: Homo sapiens, KP-4;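 note: human KP-4 cells, with growth inhibition read out through a cell viability assay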
Description: SANGER: Inhibition of human KP-4 cell growth in a cell viability assay.

NCI-H1437 = assay: cells; assay type: functional, cell-based, Homo sapiens; conditions: Homo sapiens, NCI-H1437;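 note: growth inhibition of human NCI-H1437 cells, read out by a cell viability assay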
Description: SANGER: Inhibition of human NCI-H1437 cell growth in a cell viability assay.

SiHa = assay: cells; assay type: functional, cell-based, Homo sapiens; conditions: Homo sapiens, SiHa;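 note: Viability-based readout of growth inhibition in SiHa cells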
Description: SANGER: Inhibition of human SiHa cell growth in a cell viability assay.

SBC-5 = assay: cells; assay type: functional, cell-based, Homo sapiens; conditions: Homo sapiens, SBC-5;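 note: cell viability assay read-out, IC50 is the concentration that inhibits growth of the cells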
Description: SANGER: Inhibition of human SBC-5 cell growth in a cell viability assay.

Daudi = assay: cells; assay type: functional, cell-based, Homo sapiens; conditions: Homo sapiens, Daudi;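 note: growth inhibition of Daudi cells, read out by a viability assay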
Description: SANGER: Inhibition of human Daudi cell growth in a cell viability assay.

NCI-H1993 = assay: cells; assay type: functional, cell-based, Homo sapiens; conditions: Homo sapiens, NCI-H1993;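 note: growth inhibition of the cancer cell line, assessed with a cell viability assay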
Description: SANGER: Inhibition of human NCI-H1993 cell growth in a cell viability assay.

A-427 = assay: cells; assay type: functional, cell-based, Homo sapiens; conditions: Homo sapiens, A-427;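 note: growth inhibition of human A-427 cells, read out by a cell viability assay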
Description: SANGER: Inhibition of human A427 cell growth in a cell viability assay.

SCC-3 = assay: cells; assay type: functional, cell-based, Homo sapiens; conditions: Homo sapiens, SCC-3;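 note: cell viability assay measuring inhibition of SCC-3 cell growth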
Description: SANGER: Inhibition of human SCC-3 cell growth in a cell viability assay.

ME-180 = assay: cells; assay type: functional, cell-based, Homo sapiens; conditions: Homo sapiens, ME-180;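 note: cell viability assay measuring growth inhibition of ME-180 cells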
Description: SANGER: Inhibition of human ME-180 cell growth in a cell viability assay.

BCPAP = assay: cells; assay type: functional, cell-based, Homo sapiens; conditions: Homo sapiens, BCPAP;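 note: growth inhibition of BCPAP cells, read out in a cell viability assay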
Description: SANGER: Inhibition of human BCPAP cell growth in a cell viability assay.

OAW-42 = assay: cells; assay type: functional, cell-based, Homo sapiens; conditions: Homo sapiens, OAW-42;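 note: growth inhibition of OAW-42 cells, read out with a cell viability assay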
Description: SANGER: Inhibition of human OAW-42 cell growth in a cell viability assay.

NCI-H719 = assay: cells; assay type: functional, cell-based, Homo sapiens; conditions: Homo sapiens, NCI-H719;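 note: growth inhibition of the cultured cell line, read out with a viability assay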
Description: SANGER: Inhibition of human NCI-H719 cell growth in a cell viability assay.

RMG-I = assay: cells; assay type: functional, cell-based, Homo sapiens; conditions: Homo sapiens, RMG-I;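 note: growth inhibition of human RMG-I cells, read out with a cell viability assay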
Description: SANGER: Inhibition of human RMG-I cell growth in a cell viability assay.

PA-1 = assay: cells; assay type: functional, cell-based, Homo sapiens; conditions: Homo sapiens, PA-1;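 note: IC50 for suppression of PA-1 cell proliferation, determined with a cell viability read-out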
Description: SANGER: Inhibition of human PA-1 cell growth in a cell viability assay.

KU-19-19 = assay: cells; assay type: functional, cell-based, Homo sapiens; conditions: Homo sapiens, KU-19-19
Description: SANGER: Inhibition of human KU-19-19 cell growth in a cell viability assay.

GDM-1 = assay: cells; assay type: functional, cell-based, Homo sapiens; conditions: Homo sapiens, GDM-1;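 note: cell viability readout used to measure growth inhibition of human GDM-1 cells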
Description: SANGER: Inhibition of human GDM-1 cell growth in a cell viability assay.

HTC-C3 = assay: cells; assay type: functional, cell-based, Homo sapiens; conditions: Homo sapiens, HTC-C3;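 note: inhibition of cell growth, read out with a cell viability assay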
Description: SANGER: Inhibition of human HTC-C3 cell growth in a cell viability assay.

TCC-SUP = assay: cells; assay type: functional, cell-based, Homo sapiens; conditions: Homo sapiens, TCC-SUP;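 note: growth inhibition of TCC-SUP cells, read out with a cell viability assay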
Description: SANGER: Inhibition of human TCCSUP cell growth in a cell viability assay.

SW780 = assay: cells; assay type: functional, cell-based, Homo sapiens; conditions: Homo sapiens, SW780;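 note: growth inhibition of the cells, read out with a cell viability assay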
Description: SANGER: Inhibition of human SW780 cell growth in a cell viability assay.

RPMI-2650 = assay: cells; assay type: functional, cell-based, Homo sapiens; conditions: Homo sapiens, RPMI-2650
Description: SANGER: Inhibition of human RPMI-2650 cell growth in a cell viability assay.

KYSE-70 cell line = assay: cells; assay type: functional, cell-based, Homo sapiens; conditions: Homo sapiens, KYSE-70;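 note: cell viability assay read-out, with IC50 expressing suppression of KYSE-70 cell growth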
Description: SANGER: Inhibition of human KYSE-70 cell growth in a cell viability assay.

NCI-H748 = assay: cells; assay type: functional, cell-based, Homo sapiens; conditions: Homo sapiens, NCI-H748;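 note: growth inhibition of NCI-H748 cells, measured by a cell viability assay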
Description: SANGER: Inhibition of human NCI-H748 cell growth in a cell viability assay.

IST-SL2 = assay: cells; assay type: functional, cell-based, Homo sapiens; conditions: Homo sapiens, IST-SL2;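 note: growth inhibition of human IST-SL2 cells, read out by a cell viability assay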
Description: SANGER: Inhibition of human IST-SL2 cell growth in a cell viability assay.

BL-70 = assay: SANGER: Inhibition of human BL-70 cell growth in a cell viability assay.; assay type: functional, cell-based; conditions: Homo sapiens, BL-70
BT-20 = assay: cells; assay type: functional, cell-based, Homo sapiens; conditions: Homo sapiens, BT-20;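 note: cell viability assay measuring suppression of growth in human BT-20 cells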
Description: SANGER: Inhibition of human BT-20 cell growth in a cell viability assay.

FTC-133 = assay: cells; assay type: functional, cell-based, Homo sapiens; conditions: Homo sapiens, FTC-133
CAL-120 = assay: cells; assay type: functional, cell-based, Homo sapiens; conditions: Homo sapiens, CAL-120;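 note: cell growth inhibition, read out as cell viability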
Description: SANGER: Inhibition of human CAL-120 cell growth in a cell viability assay.

BL-41 = assay: cells; assay type: functional, cell-based, Homo sapiens; conditions: Homo sapiens, BL-41;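 note: growth inhibition of human BL-41 cells, read out with a cell viability assay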
Description: SANGER: Inhibition of human BL-41 cell growth in a cell viability assay.

SKG-IIIa = assay: cells; assay type: functional, cell-based, Homo sapiens; conditions: Homo sapiens, SKG-IIIa;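 note: cell growth inhibition, read out with a cell viability assay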
Description: SANGER: Inhibition of human SKG-IIIa cell growth in a cell viability assay.

N#Cc1c(O)c2c(-c3ccc(-c4ccccc4O)cc3)csc2[nH]c1=O
IC50 (TUR): 345 nM
IC50 (A 172): > 1020 nM
IC50 (D-542MG): > 1020 nM
IC50 (MC-CAR): 172 nM
IC50 (KYSE-270): > 1020 nM
IC50 (VM-CUB-1): > 1020 nM
IC50 (A673): > 1020 nM
IC50 (YKG-1): > 1020 nM
IC50 (H4): > 1020 nM
IC50 (HuO-3N1): > 1020 nM
IC50 (MG-63): > 1020 nM
IC50 (DG-75): > 1020 nM
IC50 (RO82-W-1): > 1020 nM
IC50 (HCC1937): > 1020 nM
IC50 (NY): > 1020 nM
IC50 (RT-112): > 1020 nM
IC50 (UACC-812): > 1020 nM
IC50 (OE33): > 1020 nM
IC50 (KP-4): > 1020 nM
IC50 (NCI-H1437): > 1020 nM
IC50 (SiHa): > 1020 nM
IC50 (SBC-5): > 1020 nM
IC50 (Daudi): 49.8 nM
IC50 (NCI-H1993): > 1020 nM
IC50 (A-427): > 1020 nM
IC50 (SCC-3): > 1020 nM
IC50 (ME-180): > 1020 nM
IC50 (BCPAP): > 1020 nM
IC50 (OAW-42): > 1020 nM
IC50 (NCI-H719): > 1020 nM
IC50 (RMG-I): > 1020 nM
IC50 (PA-1): > 1020 nM
IC50 (KU-19-19): > 1020 nM
IC50 (GDM-1): 25.5 nM
IC50 (HTC-C3): > 1020 nM
IC50 (TCC-SUP): > 1020 nM
IC50 (SW780): > 1020 nM
IC50 (RPMI-2650): > 1020 nM
IC50 (KYSE-70 cell line): > 1020 nM
IC50 (NCI-H748): > 1020 nM
IC50 (IST-SL2): > 1020 nM
IC50 (BL-70): 108 nM
IC50 (BT-20): > 1020 nM
IC50 (FTC-133): > 1020 nM
IC50 (CAL-120): > 1020 nM
IC50 (BL-41): 189 nM
IC50 (SKG-IIIa): > 1020 nM

C=C(c1ccc(C(=O)O)cc1)c1cc2c(cc1C)C(C)(C)CCC2(C)C [BEXAROTENE]
IC50 (TUR): > 8000 nM
IC50 (A 172): > 8000 nM
IC50 (D-542MG): > 8000 nM
IC50 (MC-CAR): > 8000 nM
IC50 (KYSE-270): > 8000 nM
IC50 (VM-CUB-1): > 8000 nM
IC50 (A673): > 8000 nM
IC50 (YKG-1): > 8000 nM
IC50 (H4): > 8000 nM
IC50 (HuO-3N1): > 8000 nM
IC50 (MG-63): 789 nM
IC50 (DG-75): > 8000 nM
IC50 (RO82-W-1): > 8000 nM
IC50 (HCC1937): > 8000 nM
IC50 (NY): > 8000 nM
IC50 (RT-112): > 8000 nM
IC50 (UACC-812): > 8000 nM
IC50 (OE33): > 8000 nM
IC50 (NCI-H1437): > 8000 nM
IC50 (SiHa): > 8000 nM
IC50 (SBC-5): > 8000 nM
IC50 (Daudi): > 8000 nM
IC50 (NCI-H1993): > 8000 nM
IC50 (A-427): 5970 nM
IC50 (SCC-3): > 8000 nM
IC50 (ME-180): > 8000 nM
IC50 (BCPAP): > 8000 nM
IC50 (OAW-42): > 8000 nM
IC50 (NCI-H719): > 8000 nM
IC50 (RMG-I): > 8000 nM
IC50 (PA-1): > 8000 nM
IC50 (KU-19-19): > 8000 nM
IC50 (GDM-1): > 8000 nM
IC50 (HTC-C3): > 8000 nM
IC50 (TCC-SUP): > 8000 nM
IC50 (SW780): > 8000 nM
IC50 (RPMI-2650): > 8000 nM
IC50 (KYSE-70 cell line): > 8000 nM
IC50 (NCI-H748): > 8000 nM
IC50 (IST-SL2): > 8000 nM
IC50 (BL-70): > 8000 nM
IC50 (BT-20): > 8000 nM
IC50 (FTC-133): > 8000 nM
IC50 (CAL-120): > 8000 nM
IC50 (BL-41): > 8000 nM
IC50 (SKG-IIIa): > 8000 nM

Nc1ccn([C@@H]2O[C@H](CO)[C@@H](O)C2(F)F)c(=O)n1 [GEMCITABINE]
IC50 (TUR): 32 nM
IC50 (A 172): 24.7 nM
IC50 (D-542MG): > 1020 nM
IC50 (MC-CAR): 11.6 nM
IC50 (KYSE-270): < 4 nM
IC50 (VM-CUB-1): 34.7 nM
IC50 (A673): 34.2 nM
IC50 (YKG-1): < 4 nM
IC50 (H4): 2.18 nM
IC50 (HuO-3N1): > 1020 nM
IC50 (MG-63): 1.33 nM
IC50 (DG-75): > 1020 nM
IC50 (RO82-W-1): > 1020 nM
IC50 (HCC1937): > 1020 nM
IC50 (NY): 30.2 nM
IC50 (RT-112): < 4 nM
IC50 (UACC-812): > 1020 nM
IC50 (OE33): 61.2 nM
IC50 (NCI-H1437): 9.42 nM
IC50 (SiHa): > 1020 nM
IC50 (SBC-5): < 4 nM
IC50 (Daudi): 569 nM
IC50 (NCI-H1993): > 1020 nM
IC50 (A-427): 324 nM
IC50 (SCC-3): 89.6 nM
IC50 (ME-180): 38.8 nM
IC50 (BCPAP): 1.45 nM
IC50 (OAW-42): 92.1 nM
IC50 (NCI-H719): 892 nM
IC50 (RMG-I): > 1020 nM
IC50 (PA-1): 8.99 nM
IC50 (KU-19-19): > 1020 nM
IC50 (GDM-1): 62.5 nM
IC50 (HTC-C3): 996 nM
IC50 (TCC-SUP): > 1020 nM
IC50 (SW780): > 1020 nM
IC50 (RPMI-2650): 17.6 nM
IC50 (KYSE-70 cell line): 300 nM
IC50 (NCI-H748): 355 nM
IC50 (IST-SL2): < 4 nM
IC50 (BL-70): 111 nM
IC50 (BT-20): 182 nM
IC50 (FTC-133): 87.5 nM
IC50 (CAL-120): 576 nM
IC50 (BL-41): 14.4 nM
IC50 (SKG-IIIa): 810 nM
